TGI and GI50 data for 13 molecules are collected here from PubChem BioAssay (NCI).

Test systems include SK-OV-3 ovarian; A549 NSCLC; K-562 leukemia; MOLT-4 leukemia; UO-31 renal; SK-MEL-28 melanoma; SR leukemia; SN12C renal; DU-145 prostate; T-47D breast.
Holding throughout (assay): inhibition of tumour cell growth, NCI panel, 48 h

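Grown in 96-well plates, cells were treated for 48 hours with each compound at five concentrations. Insufficient inhibition: endpoint recorded as highest concentration tested. The concentration for 50% growth inhibition is given as GI50. TGI denotes the concentration required for complete inhibition of growth.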 Bounds are passed on as bounds.

Turning to `COC(=O)C(=C\Sc1ccccc1)/C=C/C(=O)OC(C)(C)C`, the TGI in the experiment with SK-OV-3 ovarian amounted to 43.9 µM; in the experiment with A549 NSCLC it was 42 µM; in the experiment on K-562 leukemia it was 15.8 µM; with MOLT-4 leukemia, 9.44 µM; in the experiment on UO-31 renal it was 29.5 µM; in the experiment with SK-MEL-28 melanoma, 26.2 µM. For the same molecule, the TGI is 21 µM with SR leukemia and > 29 µM with SN12C renal.

Regarding `Cc1cc(N2CCOCC2)nc(N(CCNc2ccnc3cc(Cl)ccc23)Cc2ccco2)n1`, the GI50 is 7.01 µM in the experiment on SK-OV-3 ovarian; 6.85 µM with DU-145 prostate; 6.2 µM in the experiment with A549 NSCLC; 2.91 µM with K-562 leukemia; 3.41 µM in the experiment on MOLT-4 leukemia; 1.99 µM with UO-31 renal. The values for the GI50 in the experiment on SK-MEL-28 melanoma, in the experiment with T-47D breast and with SN12C renal were 2.69 µM, 2.13 µM and 6.88 µM, respectively. Moreover, the TGI in the experiment on SK-OV-3 ovarian was 22 µM; with DU-145 prostate, 26.5 µM; in the experiment on A549 NSCLC, 39.1 µM; with K-562 leukemia it was > 100 µM; with MOLT-4 leukemia, > 100 µM; in the experiment with UO-31 renal it was 6.97 µM. Also, the TGI worked out at 7.67 µM with SK-MEL-28 melanoma, 4.92 µM in the experiment with T-47D breast and 26.7 µM with SN12C renal.

Turning to `COC(=O)C1=C2C3=C(C(=O)c4ccccc4C3=O)N(Cc3ccccc3)C2(OC(C)=O)C=CC1=O` (stereo unspecified), the GI50 was 27.6 µM in the experiment with SK-OV-3 ovarian; 14.8 µM in the experiment on DU-145 prostate; 27.6 µM in the experiment with A549 NSCLC; 4.69 µM in the experiment with K-562 leukemia; 0.846 µM in the experiment on MOLT-4 leukemia; 18.2 µM in the experiment on UO-31 renal. The GI50 in the experiment with SK-MEL-28 melanoma was 27.8 µM; with T-47D breast, 66.4 µM; with SN12C renal it was 6.78 µM. Besides, the TGI in the experiment with SK-OV-3 ovarian was > 100 µM; in the experiment on DU-145 prostate it was 61.9 µM; in the experiment with A549 NSCLC, > 100 µM; with K-562 leukemia, > 100 µM; with MOLT-4 leukemia, > 100 µM; with UO-31 renal it was > 100 µM. For the same molecule, the figures for the TGI in the experiment with SK-MEL-28 melanoma, in the experiment on T-47D breast and with SN12C renal were 66.7 µM, > 100 µM and 30.2 µM, respectively.

As to `O=S1Cc2ccccc2CS1` (stereo unspecified), the TGI in the experiment on SK-OV-3 ovarian was > 100 µM; in the experiment with A549 NSCLC, > 100 µM; with K-562 leukemia, 49.9 µM; in the experiment with MOLT-4 leukemia, 56 µM; with UO-31 renal it was 56.4 µM; in the experiment on SK-MEL-28 melanoma it was 28.3 µM. The figures for the TGI in the experiment with SR leukemia and with SN12C renal were 64.4 µM and 28.3 µM, respectively.

Consider `Cc1ccc(/C=C/C(=O)c2sc(C(N)=S)nc2C)cc1`, for which the TGI in the experiment with SK-OV-3 ovarian, in the experiment on A549 NSCLC, in the experiment with K-562 leukemia, in the experiment on MOLT-4 leukemia, in the experiment on UO-31 renal and in the experiment with SK-MEL-28 melanoma was > 100 µM throughout. Also, the TGI in the experiment on SN12C renal is > 100 µM.

As for `Cc1cc(=O)[nH]c(CNC(=O)c2cccc3ccccc23)n1`, the TGI in the experiment on SK-OV-3 ovarian, with A549 NSCLC, in the experiment with K-562 leukemia, in the experiment with MOLT-4 leukemia, in the experiment with UO-31 renal and with SK-MEL-28 melanoma was > 100 µM in each case. For the same molecule, the TGI in the experiment on SR leukemia and in the experiment on SN12C renal was > 100 µM throughout.

Take `CC(/C=C/C=C/C=C/C=C/C=C/C(O)=C1/C(=O)C(CCC(=O)O)N(C)C1=O)=C\C(C)C(OC1CC(O)C(O)C(C)O1)C(C)C` (stereo unspecified): the TGI turned out to be 12.4 µM in the experiment with DU-145 prostate; 10.5 µM with A549 NSCLC; 15.6 µM with K-562 leukemia; 7.08 µM in the experiment on MOLT-4 leukemia; 13.5 µM in the experiment with UO-31 renal; 10.1 µM in the experiment on SK-MEL-28 melanoma. For the same molecule, the figures for the TGI in the experiment with SR leukemia and in the experiment with SN12C renal were 40.2 µM and 13.6 µM, respectively.

`COC(=O)C1C(=O)O[C@@H](c2ccc(OC)cc2)C1C(=O)OC` (stereo partly specified): the TGI with SK-OV-3 ovarian, with A549 NSCLC, in the experiment on K-562 leukemia, with MOLT-4 leukemia, with UO-31 renal and with SK-MEL-28 melanoma was > 100 µM in each case. Further, the TGI with SR leukemia and in the experiment with SN12C renal was > 100 µM each time.

As for `CC(C)Cc1ccc(C(C)/C=C2\CCC(CN3CCOCC3)C2=O)cc1` (stereo unspecified), the TGI in the experiment with SK-OV-3 ovarian worked out at 32.8 µM; with DU-145 prostate, 26.6 µM; in the experiment with A549 NSCLC, 34.8 µM; with K-562 leukemia, 12.4 µM; with MOLT-4 leukemia, 11 µM; with UO-31 renal it was 21.8 µM. Moreover, the TGI in the experiment with SK-MEL-28 melanoma amounted to 22.8 µM; in the experiment with SR leukemia, 13.8 µM; in the experiment with SN12C renal, 21.5 µM.

Consider `Clc1ccc(-c2nc(-c3c[nH]c4ncccc34)cs2)cc1`, for which the GI50 with SK-OV-3 ovarian, with DU-145 prostate, with A549 NSCLC, in the experiment with K-562 leukemia, in the experiment on MOLT-4 leukemia and in the experiment on UO-31 renal was > 100 µM throughout. Also, the GI50 with SK-MEL-28 melanoma is > 100 µM; with T-47D breast, 9.41 µM; with SN12C renal, > 100 µM. In addition, the TGI with SK-OV-3 ovarian, in the experiment with DU-145 prostate, in the experiment on A549 NSCLC, in the experiment with K-562 leukemia, in the experiment on MOLT-4 leukemia and with UO-31 renal was > 100 µM throughout. The TGI in the experiment with SK-MEL-28 melanoma, in the experiment with T-47D breast and with SN12C renal was > 100 µM throughout.

Consider `CC12Oc3ccc4ccccc4c3C1c1c(ccc3ccccc13)O2` (stereo unspecified), for which the TGI in the experiment on SK-OV-3 ovarian, in the experiment on A549 NSCLC, in the experiment with K-562 leukemia, in the experiment with MOLT-4 leukemia, in the experiment on UO-31 renal and with SK-MEL-28 melanoma was > 100 µM throughout. For the same molecule, the TGI with SR leukemia and in the experiment with SN12C renal was > 100 µM throughout.

`Cn1c(O)c(C=N)c(=O)n(C)c1=O`: the TGI in the experiment on A549 NSCLC, in the experiment on K-562 leukemia, in the experiment on MOLT-4 leukemia, in the experiment on UO-31 renal, in the experiment with SK-MEL-28 melanoma and in the experiment with SR leukemia was > 100 µM throughout. Also, the TGI with SN12C renal is > 100 µM.

As to `CC(=O)N(/N=C\c1ccc([N+](=O)[O-])cc1)c1ccccc1`, the TGI in the experiment on SK-OV-3 ovarian, in the experiment on A549 NSCLC, in the experiment with K-562 leukemia, with UO-31 renal, in the experiment on SK-MEL-28 melanoma and in the experiment on SN12C renal was > 100 µM in each case.
